Data reported in PubChem BioAssay (NCI).
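Grown in 96-well plates, cells were treated for 48 hours with each compound at five concentrations. Insufficient inhibition: endpoint recorded as highest concentration tested. The concentration for 50% growth inhibition is given as GI50. TGI: concentration producing complete growth inhibition.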

Experiments:
Assay in all cases: NCI tumour cell line growth inhibition, 48 h
[1] = system: 786-0 renal
[2] = system: A498 renal
[3] = system: CCRF-CEM leukemia
[4] = system: HCT-15 colon
[5] = system: IGROV1 ovarian
[6] = system: M14 melanoma
[7] = system: OVCAR-4 ovarian
[8] = system: RPMI-8226 leukemia
[9] = system: SR leukemia
[10] = system: SW-620 colon
[11] = system: UO-31 renal
[12] = system: NCI/ADR-RES ovarian
[13] = system: OVCAR-3 ovarian
[14] = system: LOX IMVI melanoma
[15] = system: SK-MEL-2 melanoma
[16] = system: T-47D breast

Row | Compound | TGI [1] [µM] | TGI [2] [µM] | TGI [3] [µM] | TGI [4] [µM] | TGI [5] [µM] | TGI [6] [µM] | TGI [7] [µM] | TGI [8] [µM] | TGI [9] [µM] | TGI [10] [µM] | TGI [11] [µM] | TGI [12] [µM] | TGI [13] [µM] | TGI [14] [µM] | TGI [15] [µM] | GI50 [12] [µM] | GI50 [16] [µM] | TGI [16] [µM]
1 | O=C1C2CCC(C2)C12CC1(c3ccccc3)C(=O)c3ccccc3N1O2 (configuration not stated) | > 100 | > 100 | > 100 | > 100 | > 100 | > 100 | > 100 | > 100 | > 100 | > 100 | > 100 | – | – | – | – | – | – | –
2 | CN(C)CC(CO)(CN(C)C)CN(C)C | > 100 | – | > 100 | > 100 | > 100 | > 100 | > 100 | > 100 | > 100 | > 100 | > 100 | > 100 | > 100 | – | – | – | – | –
3 | COc1cc(C(C)c2cc3c(cc2OCCCCOc2cc4c(cc2C(C)c2cc(OC)c(OC)c(OC)c2)OCO4)OCO3)cc(OC)c1OC (configuration not stated) | > 100 | – | > 100 | > 100 | > 100 | 99.4 | > 100 | > 100 | > 100 | 96 | > 100 | – | 58.2 | > 100 | > 100 | – | – | –
4 | CC(=O)[O-].CC(=O)[O-].[NH2-].[Pt+2].c1ccncc1 | > 100 | > 100 | > 100 | > 100 | > 100 | > 100 | > 100 | > 100 | – | > 100 | > 100 | > 100 | > 100 | > 100 | > 100 | 80 | 59.4 | > 100
5 | COc1ccc([N-]/C(=N\n2c(=O)c(C)nn(C)c2=S)N(c2ccc(OC)cc2)c2nn3c(=O)c(C)n[n+](C)c3s2)cc1 | > 100 | > 100 | > 100 | > 100 | > 100 | > 100 | > 100 | > 100 | > 100 | > 100 | – | – | – | > 100 | – | – | – | –
6 | C=C(C)[C@@]1(O)CCC[C@H]1NC(=O)OC(C)(C)C | > 100 | > 100 | > 100 | > 100 | > 100 | > 100 | > 100 | – | – | > 100 | > 100 | > 100 | > 100 | > 100 | > 100 | – | – | > 100
7 | CC(C)[Si](OC1=C(C(=O)N(C)c2ccccc2Cl)CCC1)(C(C)C)C(C)C | 48.9 | 30.7 | – | 30.6 | 33 | 35.7 | 38.1 | 49.6 | – | 46.9 | 29.4 | 30.4 | 31.2 | 33.7 | – | – | – | 47.1
8 | Cc1ccc(-n2c(Cn3nnc(-c4cccnc4)n3)nn(C3OC(COC(=O)c4ccccc4)C(OC(=O)c4ccccc4)C3OC(=O)c3ccccc3)c2=S)cc1 (configuration not stated) | > 100 | – | > 100 | > 100 | > 100 | > 100 | > 100 | > 100 | – | > 100 | > 100 | > 100 | > 100 | > 100 | > 100 | – | – | > 100
9 | COc1ccc(C(C2C(=O)N(C)C(=O)N(C)C2=O)C(F)(F)C(=O)N(C)C)cc1 (configuration not stated) | > 100 | > 100 | > 100 | > 100 | – | > 100 | > 100 | > 100 | – | > 100 | > 100 | > 100 | > 100 | > 100 | > 100 | – | – | > 100
10 | CC(C)OP(=O)(OC(C)C)/C(=N/N)NNc1ccc([N+](=O)[O-])cc1 | > 100 | > 100 | > 100 | > 100 | – | > 100 | > 100 | > 100 | > 100 | > 100 | > 100 | – | > 100 | > 100 | > 100 | – | – | –
11 | Cc1cc2c(cc1C)[n+](=O)c(N1CCN(c3ccc([N+](=O)[O-])cc3)CC1)c(C#N)n2[O-] | 59.8 | > 100 | > 100 | > 100 | > 100 | > 100 | > 100 | > 100 | – | > 100 | > 100 | > 100 | – | > 100 | 66 | – | – | 63.7
12 | O=c1c2ccccc2nc(-c2ccccc2)n1NC(=S)Nc1ccc(Cl)cc1[N+](=O)[O-] | > 100 | > 100 | > 100 | > 100 | > 100 | > 100 | > 100 | > 100 | > 100 | > 100 | > 100 | – | – | > 100 | > 100 | – | – | –
13 | Cc1nc2ccccc2c(=O)n1NC(=O)c1ccccc1O | > 100 | > 100 | > 100 | > 100 | > 100 | > 100 | > 100 | > 100 | > 100 | > 100 | > 100 | – | > 100 | > 100 | – | – | – | –
14 | COC(=O)C1C2C=CC(C2)N1S(=O)(=O)c1ccccc1 (configuration not stated) | > 100 | > 100 | – | > 100 | – | > 100 | > 100 | > 100 | – | > 100 | > 100 | > 100 | > 100 | – | > 100 | – | – | > 100
15 | CCN1CC2=C(NC(=S)NC2c2cc(OC)c(OC)c(OC)c2)/C(=C/c2cc(OC)c(OC)c(OC)c2)C1 (configuration not stated) | > 100 | 87.8 | > 100 | > 100 | > 100 | > 100 | > 100 | 42.9 | – | > 100 | 67.7 | > 100 | > 100 | > 100 | > 100 | – | – | –
16 | O=C(N/N=C1/C(=O)c2c3ccccc3cc3cccc1c23)c1cccc(Cl)c1 | > 100 | > 100 | > 100 | > 100 | > 100 | > 100 | > 100 | > 100 | > 100 | > 100 | – | > 100 | > 100 | > 100 | > 100 | – | – | –
